Experimental data reported in article PMC3416963 (Biochemistry, 2012).

Target: LigI (Sphingobium sp. SYK-6, UniProt O87170)
Assay: spectrophotometric PDC hydrolysis at […] nm
Type: biochemical

Chain of LigI (O87170 2-293): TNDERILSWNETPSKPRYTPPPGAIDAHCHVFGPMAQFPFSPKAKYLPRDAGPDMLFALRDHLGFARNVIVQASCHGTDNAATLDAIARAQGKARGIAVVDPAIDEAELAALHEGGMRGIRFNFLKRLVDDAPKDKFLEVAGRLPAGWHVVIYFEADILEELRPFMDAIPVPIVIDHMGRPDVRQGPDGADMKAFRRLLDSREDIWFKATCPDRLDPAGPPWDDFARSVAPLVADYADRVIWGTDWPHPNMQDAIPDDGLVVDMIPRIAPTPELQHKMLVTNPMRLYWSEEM

SMILES	Ki [µM]
O=C(O)c1ccnc(C(=O)O)c1 [compound 2, pyridine-2,4-dicarboxylic acid]	75 ± 2
O=C(O)c1cc(O)cc(C(=O)O)c1 [compound 5, 5-hydroxyisophthalic acid]	40 ± 3
